# According to ChEMBL document CHEMBL1141936, “Structural basis for the GSK-3beta binding affinity and selectivity against CDK-2 of 1-(4-aminofurazan-3yl)-5-dialkylaminomethyl-1H-[1,2,3] triazole-4-carboxylic acid derivatives” (Bioorg Med Chem Lett, 2005):
# Assays:
# [1] = target: Glycogen synthase kinase-3 beta (Homo sapiens, UniProt P49841); assay: Inhibitory activity against GSK3-beta
# [2] = target: Cyclin-dependent kinase 2 (Homo sapiens, UniProt P24941); assay: Inhibitory activity against CDK2
# Chain of Glycogen synthase kinase-3 beta (P49841 whole entry): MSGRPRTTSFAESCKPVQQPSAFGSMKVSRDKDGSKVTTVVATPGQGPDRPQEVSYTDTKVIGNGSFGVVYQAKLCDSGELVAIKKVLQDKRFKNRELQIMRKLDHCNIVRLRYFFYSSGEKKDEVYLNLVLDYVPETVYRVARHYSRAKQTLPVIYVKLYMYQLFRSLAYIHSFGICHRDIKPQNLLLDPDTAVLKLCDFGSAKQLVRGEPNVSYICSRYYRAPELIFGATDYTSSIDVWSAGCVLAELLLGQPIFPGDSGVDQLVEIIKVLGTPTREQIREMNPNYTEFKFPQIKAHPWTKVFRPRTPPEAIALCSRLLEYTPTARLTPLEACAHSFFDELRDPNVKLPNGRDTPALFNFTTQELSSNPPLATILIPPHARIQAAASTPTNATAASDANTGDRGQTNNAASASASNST
SMILES,IC50 [1] [nM],IC50 [2] [nM]
NC1=NONC1N1N=NC(c2nnc(-c3ccncc3)[nH]2)C1CN1CCCCC1 (centres undefined),280,> 250000
NC1=NONC1N1N=NC(C(=O)N/N=C/c2ccncc2)C1CN1CCCCC1 (centres undefined),100,96000
